Laboratory results from article PMC8364686, “Safety, tolerability, pharmacokinetics and pharmacodynamics of single oral doses of BI 187004, an inhibitor of 11beta-hydroxysteroid dehydrogenase-1, in healthy male volunteers with overweight or obesity” (Clinical Diabetes and Endocrinology, 2021).

Assay: Plasma pharmacokinetics of BI 187004 after single oral doses (LC–MS/MS)
Settings: male, human, plasma, po; for concentration at 36 h: planned time 36 h; for concentration at 48 h: planned time 48 h; for concentration at 72 h: planned time 72 h; for concentration at 96 h: planned time 96 h; for concentration at 0.5 h: planned time 0.5 h; for concentration at 1 h: planned time 1 h; for concentration at 1.5 h: planned time 1.5 h; for concentration at 2 h: planned time 2 h; for concentration at 2.5 h: planned time 2.5 h; for concentration at 3 h: planned time 3 h; for concentration at 4 h: planned time 4 h; for concentration at 5 h: planned time 5 h; for concentration at 6 h: planned time 6 h; for concentration at 8 h: planned time 8 h; for concentration at 10 h: planned time 10 h; for concentration at 12 h: planned time 12 h
[1] = 160 mg, BI 187004 plasma concentrations, 160 mg single oral, Max
[2] = 160 mg, BI 187004 plasma concentrations, 160 mg single oral, Mean
[3] = 160 mg, BI 187004 plasma concentrations, 160 mg single oral, Median
[4] = 160 mg, BI 187004 plasma concentrations, 160 mg single oral, Min
[5] = 160 mg, BI 187004 plasma concentrations, 160 mg single oral, gMean
[6] = 240 mg, BI 187004 plasma concentrations, Max, 240 mg single oral
[7] = 240 mg, BI 187004 plasma concentrations, Mean, 240 mg single oral
[8] = 240 mg, BI 187004 plasma concentrations, Median, 240 mg single oral
[9] = 240 mg, BI 187004 plasma concentrations, Min, 240 mg single oral
[10] = 240 mg, BI 187004 plasma concentrations, gMean, 240 mg single oral
[11] = 360 mg, BI 187004 plasma concentrations, 360 mg single oral, individual subjects
[12] = 360 mg, BI 187004 plasma concentrations, Max, 360 mg single oral
[13] = 360 mg, BI 187004 plasma concentrations, Mean, 360 mg single oral
[14] = 360 mg, BI 187004 plasma concentrations, Median, 360 mg single oral
[15] = 360 mg, BI 187004 plasma concentrations, Min, 360 mg single oral
[16] = 360 mg, BI 187004 plasma concentrations, gMean, 360 mg single oral

N#Cc1ccc2c(c1)[C@H]1CCCN(C(=O)c3ccc4[nH]cnc4c3)[C@H]1C2 [BI 187004]
concentration at 36 h [1]: 1.39 µM
concentration at 36 h [2]: 0.716 µM
concentration at 36 h [3]: 0.604 µM
concentration at 36 h [4]: 0.476 µM
concentration at 36 h [5]: 0.669 µM
concentration at 48 h [1]: 1 µM
concentration at 48 h [2]: 0.457 µM
concentration at 48 h [3]: 0.352 µM
concentration at 48 h [4]: 0.329 µM
concentration at 48 h [5]: 0.414 µM
concentration at 72 h [1]: 0.312 µM
concentration at 72 h [2]: 0.139 µM
concentration at 72 h [3]: 0.108 µM
concentration at 72 h [4]: 0.0859 µM
concentration at 72 h [5]: 0.125 µM
concentration at 96 h [1]: 0.0468 µM
concentration at 96 h [2]: 0.0338 µM
concentration at 96 h [3]: 0.0317 µM
concentration at 96 h [4]: 0.028 µM
concentration at 96 h [5]: 0.0332 µM
concentration at 96 h (160 mg, BI 187004 plasma concentrations, 160 mg single oral, individual subjects): 0.0302 µM
concentration at 24 h (160 mg, C24 gMean (%gCV), 160 mg single oral dose): 1.63 µM
AUC(0-inf) (240 mg): 109 µM·h
AUC(0-t) (240 mg): 71.7 µM·h
Cmax (240 mg): 7.12 µM
Tmax (240 mg): 1 h
Vd/F (240 mg): 124 L
half-life (240 mg): 13.4 h
concentration at 24 h (240 mg, BI 187004 plasma concentrations, 240 mg single oral, planned time 24 h, individual subjects): 2.18 µM
concentration at 0.5 h [6]: 8.44 µM
concentration at 1 h [6]: 10.7 µM
concentration at 1.5 h [6]: 9.03 µM
concentration at 2 h [6]: 9.22 µM
concentration at 2.5 h [6]: 8.51 µM
concentration at 3 h [6]: 6.98 µM
concentration at 4 h [6]: 8.42 µM
concentration at 5 h [6]: 6.78 µM
concentration at 6 h [6]: 6.37 µM
concentration at 8 h [6]: 5.38 µM
concentration at 10 h [6]: 5.8 µM
concentration at 12 h [6]: 3.9 µM
concentration at 24 h (240 mg, BI 187004 plasma concentrations, Max, 240 mg single oral, planned time 24 h): 2.63 µM
concentration at 36 h [6]: 1.34 µM
concentration at 48 h [6]: 0.794 µM
concentration at 72 h [6]: 0.323 µM
concentration at 96 h [6]: 0.181 µM
concentration at 0.5 h [7]: 5.21 µM
concentration at 1 h [7]: 7.49 µM
concentration at 1.5 h [7]: 6.42 µM
concentration at 2 h [7]: 6.26 µM
concentration at 2.5 h [7]: 6.3 µM
concentration at 3 h [7]: 5.15 µM
concentration at 4 h [7]: 5.51 µM
concentration at 5 h [7]: 4.78 µM
concentration at 6 h [7]: 4.33 µM
concentration at 8 h [7]: 3.85 µM
concentration at 10 h [7]: 3.45 µM
concentration at 12 h [7]: 2.59 µM
concentration at 24 h (240 mg, BI 187004 plasma concentrations, Mean, 240 mg single oral, planned time 24 h): 2.17 µM
concentration at 36 h [7]: 0.926 µM
concentration at 48 h [7]: 0.508 µM
concentration at 72 h [7]: 0.157 µM
concentration at 96 h [7]: 0.0639 µM
concentration at 0.5 h [8]: 5.53 µM
concentration at 1 h [8]: 8.43 µM
concentration at 1.5 h [8]: 6.89 µM
concentration at 2 h [8]: 6.78 µM
concentration at 2.5 h [8]: 7.27 µM
concentration at 3 h [8]: 5.84 µM
concentration at 4 h [8]: 5.68 µM
concentration at 5 h [8]: 5.43 µM
concentration at 6 h [8]: 5.27 µM
concentration at 8 h [8]: 4.37 µM
concentration at 10 h [8]: 3.7 µM
concentration at 12 h [8]: 2.89 µM
concentration at 24 h (240 mg, BI 187004 plasma concentrations, Median, 240 mg single oral, planned time 24 h): 2.32 µM
concentration at 36 h [8]: 0.887 µM
concentration at 48 h [8]: 0.461 µM
concentration at 72 h [8]: 0.0989 µM
concentration at 96 h [8]: 0.0364 µM
concentration at 0.5 h [9]: 0.13 µM
concentration at 1 h [9]: 0.44 µM
concentration at 1.5 h [9]: 0.811 µM
concentration at 2 h [9]: 0.543 µM
concentration at 2.5 h [9]: 0.605 µM
concentration at 3 h [9]: 0.388 µM
concentration at 4 h [9]: 0.575 µM
concentration at 5 h [9]: 0.494 µM
concentration at 6 h [9]: 0.452 µM
concentration at 8 h [9]: 0.181 µM
concentration at 10 h [9]: 0.313 µM
concentration at 12 h [9]: 0.258 µM
concentration at 24 h (240 mg, BI 187004 plasma concentrations, Min, 240 mg single oral, planned time 24 h): 1.53 µM
concentration at 36 h [9]: 0.567 µM
concentration at 48 h [9]: 0.255 µM
concentration at 72 h [9]: 0.0541 µM
concentration at 96 h [9]: 0.0158 µM
concentration at 0.5 h [10]: 3.18 µM
concentration at 1 h [10]: 5.34 µM
concentration at 1.5 h [10]: 5.15 µM
concentration at 2 h [10]: 4.71 µM
concentration at 2.5 h [10]: 4.84 µM
concentration at 3 h [10]: 3.84 µM
concentration at 4 h [10]: 4.28 µM
concentration at 5 h [10]: 3.7 µM
concentration at 6 h [10]: 3.28 µM
concentration at 8 h [10]: 2.65 µM
concentration at 10 h [10]: 2.6 µM
concentration at 12 h [10]: 1.99 µM
concentration at 24 h (240 mg, BI 187004 plasma concentrations, gMean, 240 mg single oral, planned time 24 h): 2.13 µM
concentration at 36 h [10]: 0.885 µM
concentration at 48 h [10]: 0.465 µM
concentration at 72 h [10]: 0.118 µM
concentration at 96 h [10]: 0.0419 µM
concentration at 24 h (240 mg, C24 gMean (%gCV), 240 mg single oral dose): 2.13 µM
AUC(0-inf) (360 mg): 191 µM·h
AUC(0-t) (360 mg): 135 µM·h
Cmax (360 mg): 13.4 µM
Tmax (360 mg): 1 h
Vd/F (360 mg): 110 L
half-life (360 mg): 13.9 h
concentration at 6 h [11]: 10.2 µM
concentration at 8 h [11]: 9.51 µM
concentration at 12 h [11]: 6.08 µM
concentration at 0.5 h [12]: 16.8 µM
concentration at 1 h [12]: 18.4 µM
concentration at 1.5 h [12]: 15.9 µM
concentration at 2 h [12]: 14.5 µM
concentration at 2.5 h [12]: 14.6 µM
concentration at 3 h [12]: 12.9 µM
concentration at 4 h [12]: 12.2 µM
concentration at 5 h [12]: 9.63 µM
concentration at 6 h [12]: 10.2 µM
concentration at 8 h [12]: 9.51 µM
concentration at 10 h [12]: 7.68 µM
concentration at 12 h [12]: 6.08 µM
concentration at 24 h (360 mg, BI 187004 plasma concentrations, Max, 360 mg single oral, planned time 24 h): 4.74 µM
concentration at 36 h [12]: 1.99 µM
concentration at 48 h [12]: 1.47 µM
concentration at 72 h [12]: 0.516 µM
concentration at 96 h [12]: 0.174 µM
concentration at 0.5 h [13]: 11.5 µM
concentration at 1 h [13]: 13.1 µM
concentration at 1.5 h [13]: 11.5 µM
concentration at 2 h [13]: 10.9 µM
concentration at 2.5 h [13]: 10.3 µM
concentration at 3 h [13]: 9.36 µM
concentration at 4 h [13]: 9.59 µM
concentration at 5 h [13]: 7.55 µM
concentration at 6 h [13]: 7.25 µM
concentration at 8 h [13]: 6.85 µM
concentration at 10 h [13]: 5.5 µM
concentration at 12 h [13]: 4.83 µM
concentration at 24 h (360 mg, BI 187004 plasma concentrations, Mean, 360 mg single oral, planned time 24 h): 2.84 µM
concentration at 36 h [13]: 1.48 µM
concentration at 48 h [13]: 0.898 µM
concentration at 72 h [13]: 0.301 µM
concentration at 96 h [13]: 0.095 µM
concentration at 0.5 h [14]: 11.6 µM
concentration at 1 h [14]: 13.3 µM
concentration at 1.5 h [14]: 11.6 µM
concentration at 2 h [14]: 10.8 µM
concentration at 2.5 h [14]: 10.2 µM
concentration at 3 h [14]: 9.34 µM
concentration at 4 h [14]: 10.3 µM
concentration at 5 h [14]: 7.87 µM
concentration at 6 h [14]: 6.45 µM
concentration at 8 h [14]: 6.27 µM
concentration at 10 h [14]: 5.62 µM
concentration at 12 h [14]: 4.63 µM
concentration at 24 h (360 mg, BI 187004 plasma concentrations, Median, 360 mg single oral, planned time 24 h): 2.66 µM
concentration at 36 h [14]: 1.49 µM
concentration at 48 h [14]: 0.869 µM
concentration at 72 h [14]: 0.281 µM
concentration at 96 h [14]: 0.0816 µM
concentration at 0.5 h [15]: 5.8 µM
concentration at 1 h [15]: 7.17 µM
concentration at 1.5 h [15]: 6.45 µM
concentration at 2 h [15]: 6.66 µM
concentration at 2.5 h [15]: 5.66 µM
concentration at 3 h [15]: 6.3 µM
concentration at 4 h [15]: 5.67 µM
concentration at 5 h [15]: 4.81 µM
concentration at 6 h [15]: 5.79 µM
concentration at 8 h [15]: 5.06 µM
concentration at 10 h [15]: 3.36 µM
concentration at 12 h [15]: 3.78 µM
concentration at 24 h (360 mg, BI 187004 plasma concentrations, Min, 360 mg single oral, planned time 24 h): 1.79 µM
concentration at 36 h [15]: 0.83 µM
concentration at 48 h [15]: 0.375 µM
concentration at 72 h [15]: 0.0691 µM
concentration at 96 h [15]: 0.0168 µM
concentration at 0.5 h [16]: 10.8 µM
concentration at 1 h [16]: 12.6 µM
concentration at 1.5 h [16]: 11.1 µM
concentration at 2 h [16]: 10.6 µM
concentration at 2.5 h [16]: 9.71 µM
concentration at 3 h [16]: 9.14 µM
concentration at 4 h [16]: 9.32 µM
concentration at 5 h [16]: 7.36 µM
concentration at 6 h [16]: 7.11 µM
concentration at 8 h [16]: 6.71 µM
concentration at 10 h [16]: 5.3 µM
concentration at 12 h [16]: 4.78 µM
concentration at 24 h (360 mg, BI 187004 plasma concentrations, gMean, 360 mg single oral, planned time 24 h): 2.69 µM
concentration at 36 h [16]: 1.41 µM
concentration at 48 h [16]: 0.814 µM
concentration at 72 h [16]: 0.246 µM
concentration at 96 h [16]: 0.0723 µM
concentration at 24 h (360 mg, C24 gMean (%gCV), 360 mg single oral dose): 2.69 µM
